Target: T1, Autotaxin (Homo sapiens, UniProt Q13822)
T1 construct: purchased X-Chem
Assay: Autotaxin LPC Cascade Assay
Assay type: biochemical
Settings: 5 nM autotaxin, 100 μM LPC, choline oxidase/HRP/Ampliflu Red fluorescence readout; read-out: IC50 ATX activity values, IC50
Protocol: Autotaxin LPC Cascade Assay
HA130 and Test Compounds:
Highest final concentration is […] for HA130 (Echelon, B-0701) and 30 μM for test compounds. Prepare a 1 mM stock of HA130 and a 3 mM stock of each compound in 100% DMSO. Perform a 1:3 serial dilution in DMSO (transfer 5 μl of compound to 10 μl of DMSO). Add 240 μl of buffer to generate a top working concentration of 40 µM (HA130) and 120 µM (test compound) in 4% DMSO.
Ampliflu Red—Prepare a stock of 5 mM from 100 mM in 100% DMSO. Further dilute to a working concentration of 400 μM in buffer (8% DMSO).
Together with compound this yields a 2% DMSO final concentration.
Choline Oxidase/HRP—0.8 U/ml CO and 8 U/ml HRP.
Add 5 μl of ATX and 5 μl of compound in a 384 well plate (Corning 3676). Incubate for 10 mins at RT. Add 5 μl of LPC and incubate for 1 hr on the plate shaker. Prepare the CO/HRP and AR prior to use. Add 2.5 μl of CO/HRP and follow with 2.5 μl AR. Note order of addition, CO/HRP mix before AR. Read fluorescence intensity (λex/λem: 530/590 nm) kinetically for 30 min at RT on the Tecan M1000.

| IC50 [nM] | Compound |
| --- | --- |
| 100 to 500 | CC(C)[C@@H](NC(=O)c1cccc(OC(F)(F)F)c1)C(=O)N1CCC(C)(NCc2ccc(S(C)(=O)=O)cc2)CC1 [Example 41, (R)—N-(3-Methyl-1-(4-methyl-4-((4-(methylsulfonyl)benzyl)amino)piperidin-1-yl)-1-oxobutan-2-yl)-3-(trifluoromethoxy)benzamide] |
| 500 to 5000 | CC(C)[C@@H](NC(=O)c1cccc(OC(F)(F)F)c1)C(=O)N1CCC(C)(NC(=O)c2ccc(S(C)(=O)=O)cc2)CC1 [Example 38, (R)—N-(3-Methyl-1-(4-methyl-4-(4-(methylsulfonyl)benzamido)piperidin-1-yl)-1-oxobutan-2-yl)-3-(trifluoromethoxy)benzamide] |
| 100 to 500 | CC(=O)Nc1ccc(N(C)C2(C)CCN(C(=O)[C@H](NC(=O)c3cc(C(F)(F)F)ccc3F)C(C)C)CC2)cc1 [Example 19, (R)—N-(1-(4-(4-Acetamidophenyl(methyl)amino)-4-methylpiperidin-1-yl)-3-methyl-1-oxobutan-2-yl)-2-fluoro-5-(trifluoromethyl)benzamide] |
| 10 to 100 | CC(C)[C@@H](NC(=O)c1cc(OC(F)(F)F)ccc1F)C(=O)N1CCC(C)(Nc2ccc(S(C)(=O)=O)cc2)CC1 [Example 6, (R)-2-Fluoro-N-(3-methyl-1-(4-methyl-4-(4-(methylsulfonyl)phenylamino)piperidin-1-yl)-1-oxobutan-2-yl)-5-(trifluoromethoxy)benzamide] |
| 100 to 500 | COc1ccc(NC2(C)CCN(C(=O)[C@H](NC(=O)c3cccc(OC(F)(F)F)c3)C(C)C)CC2)cc1 [Example 8, (R)—N-(1-(4-((4-Methoxyphenyl)amino)-4-methylpiperidin-1-yl)-3-methyl-1-oxobutan-2-yl)-3-(trifluoromethoxy)benzamide] |
| 5000 to 10000 | CC(C)[C@@H](NC(=O)c1cc(C(F)(F)F)ccc1F)C(=O)N1CCC(Nc2ccc3[nH]ncc3c2)CC1 [Example 23, (R)—N-(1-(4-(1H-Indazol-5-ylamino)piperidin-1-yl)-3-methyl-1-oxobutan-2-yl)-2-fluoro-5-(trifluoromethyl)benzamide] |
| 100 to 500 | COc1ccc(CNC2(C)CCN(C(=O)[C@H](NC(=O)c3cc(OC(F)(F)F)ccc3F)C(C)C)CC2)cc1 [Example 40, (R)-2-Fluoro-N-(1-(4-((4-methoxybenzyl)amino)-4-methylpiperidin-1-yl)-3-methyl-1-oxobutan-2-yl)-5-(trifluoromethoxy)benzamide] |
| 100 to 500 | CC(C)[C@@H](NC(=O)c1cc(OC(F)(F)F)ccc1F)C(=O)N1CCC(C)(Nc2ccc(C(=O)O)cc2)CC1 [Example 11, (R)-4-((1-(2-(2-Fluoro-5-(trifluoromethoxy)benzamido)-3-methylbutanoyl)-4-methylpiperidin-4-yl)amino)benzoic acic] |
| ≥ 10000 | COCC1(Nc2ccccc2)CCN(C(=O)[C@H](NC(=O)c2cccc(C)c2)C(C)C)CC1 [Example 17, (R)—N-(1-(4-(Methoxymethyl)-4-(phenylamino)piperidin-1-yl)-3-methyl-1-oxobutan-2-yl)-3-methylbenzamide] |
| 100 to 500 | CC(C)[C@@H](NC(=O)c1cccc(OC(F)(F)F)c1)C(=O)N1CCC(C)(Nc2ccc(C(=O)O)cc2)CC1 [Example 9, (R)-4-((4-Methyl-1-(3-methyl-2-(3-(trifluoromethoxy)benzamido)butanoyl)piperidin-4-yl)amino)benzoic acid] |
| 100 to 500 | COc1ccc(NC2(C)CCN(C(=O)[C@H](NC(=O)c3cc(OC(F)(F)F)ccc3F)C(C)C)CC2)cc1 [Example 12, (R)-2-Fluoro-N-(1-(4-((4-methoxyphenyl)amino)-4-methylpiperidin-1-yl)-3-methyl-1-oxobutan-2-yl)-5-(trifluoromethoxy)benzamide] |
| 500 to 5000 | CC(C)[C@@H](NC(=O)c1cc(Cc2ccccc2)ccc1F)C(=O)N1CCC(C)(Nc2ccc(S(C)(=O)=O)cc2)CC1 [Example 30, (R)-5-Benzyl-2-fluoro-N-(3-methyl-1-(4-methyl-4-(4-(methylsulfonyl)phenylamino)piperidin-1-yl)-1-oxobutan-2-yl)benzamide] |
| 500 to 5000 | CCc1ccc(F)c(C(=O)N[C@@H](C(=O)N2CCC(C#N)(Nc3ccc(S(C)(=O)=O)cc3)CC2)C(C)C)c1 [Example 18, (R)—N-(1-(4-Cyano-4-(4-(methylsulfonyl)phenylamino)piperidin-1-yl)-3-methyl-1-oxobutan-2-yl)-5-ethyl-2-fluorobenzamide] |
| 500 to 5000 | COc1ccc(F)c(C(=O)N[C@@H](C(=O)N2CCC(C)(Nc3ccc(S(C)(=O)=O)cc3)CC2)C(C)C)c1 [Example 5, (R)-2-Fluoro-5-methoxy-N-(3-methyl-1-(4-methyl-4-(4-(methylsulfonyl)phenylamino)piperidin-1-yl)-1-oxobutan-2-yl)benzamide] |
| 100 to 500 | CC(C)[C@@H](NC(=O)c1cc(C2CC2)ccc1F)C(=O)N1CCC(C)(Nc2ccc(S(C)(=O)=O)cc2)CC1 [Example 33, (R)-5-Cyclopropyl-2-fluoro-N-(3-methyl-1-(4-methyl-4-(4-(methylsulfonyl)phenylamino)piperidin-1-yl)-1-oxobutan-2-yl)benzamide] |
| 100 to 500 | CC(C)[C@@H](NC(=O)c1cc(C(F)(F)F)ccc1F)C(=O)N1CCC(C)(Nc2ccc(S(C)(=O)=O)cc2)CC1 [Example 27, (R)-2-Fluoro-N-(3-methyl-1-(4-methyl-4-(4-(methylsulfonyl)phenylamino)piperidin-1-yl)-1-oxobutan-2-yl)-5-(trifluoromethyl)benzamide] |
